Patent US10209240B2, “Predicting human developmental toxicity of pharmaceuticals using human stem-like cells and metabolomic ratios” (STEMINA BIOMARKER DISCOVERY, INC., priority 2012, dated 2019)
Like-named read-outs stand apart in the source and are kept apart here. Marks after values point to notes of the source that are not given here.

Key:
WA09 hES cells [1] = experiment: Phase 2 targeted biomarker assay, ornithine/cystine ratio, 9-point dose response
From the text: Undifferentiated hES Cell Line Maintenance (Phases 1 and 2). WA09 hES cells were obtained from the WiCell Research Institute (Madison, Wis.) and were maintained in feeder free conditions using mTeSR1 media (StemCell Technologies, Inc., Vancouver, BC, Canada) on hESC-qualified Matrigel (BD Biosciences, San Jose, Calif.) coated 6-well plates. To maintain the undifferentiated stem cell population, differentiated colonies were removed daily through aspiration and media was replaced. Additionally, the hES cells were only used in experiments up to passage 40 and were karyotyped approximately every 10 passages to minimize and monitor the potential for genetic instability. hES cells were passaged at 90-95% confluency (approximately every 7 days) using Versene (Life Technologies, Grand Island, N.Y.). Cell cultures were maintained at 37° C. under 5% CO2.
96-well hES Cell Plating (Phases 1 and 2). All experimental treatments were carried out in 96-well plates. To minimize plating variability and increase reproducibility, hES cells were plated as a single cell suspension and maintained in an undifferentiated state during compound exposure. Prior to plating in the 96-well plates, hES cells were removed from a 6-well plate using TrypLE (Life Technologies). The cells were washed with DMEM/F12 (Life Technologies) and resuspended in mTeSR1 containing 10 μM Y27632 Rho-associated kinase (ROCK) inhibitor (Merck KGaA/Calbiochem, Darmstadt, Germany). The ROCK inhibitor is added to the plating media to increase plating efficiency by decreasing dissociation-induced apoptosis. The inner 60 wells of hESC-qualified Matrigel coated 96-well plates were seeded at a density of 100,000 cells per well. The outer wells of the plate contained an equal volume media to minimize differences in humidity across the plate. Compound exposure began 24 hours after plating.
(§1) Phase 2 hES Cell Compound Exposure. […] The standard compound exposure levels used for most compounds were nine, 3-fold dilutions ranging from 0.04 μM-300 μM (FIG. 1B). […] The stock solution was diluted 1:1000 in mTeSR1 media and subsequent dilutions were performed in mTeSR1 containing 0.1% DMSO such that the final concentration of DMSO was 0.1% in all treatments. hES cells were treated for 72 hours and spent media from the last 24-hour treatment period was collected and added to acetonitrile containing ^13C6 labeled arginine (Cambridge Isotope Laboratories, Andover, Md.) as described under Phase 1. Spent media samples were stored at −80° C. until prepared for LC-HRMS analysis. Cell viability was assessed using the CellTiter-Fluor Cell Viability Assay. A quality control step was included with criteria that the CV of the measured viability RFU of the DMSO control cells could not exceed 10% for a plate to undergo LC-HRMS analysis. A dose response curve was fit to the reference treatment (0.1% DMSO treated control cells) normalized data (Viability RFUTrt X/Viability RFUDMSO) using a four-parameter log-logistic model with the R package “drc” (Ritz and Streibig, 2005, J Statistical Software; 12:1-22).
Sample Preparation (Phases 1 and 2). High molecular weight constituents (>10 KDa) of the spent media samples were removed using a Millipore Multiscreen Ultracel-10 filter plate (EMD Millipore, Billerica, Mass.). Prior to sample filtration, the filter plate was washed with 0.1% NaOH to remove a known contaminant polymer. The plate was then rinsed twice with HPLC-grade water to remove residual polymers and NaOH. Spent media samples were added to the washed filter plate. In Phase 1, samples were spiked with ^13C6 labeled arginine. Samples were centrifuged at 2,000×g at 4° C. for 200 minutes. The filtrate was collected and concentrated overnight in a Savant High Capacity Speedvac Plus Concentrator.

WA09 hES cells [2] = tested on: WA09 hES cells
Method: Phase I hES Cell Compound Exposure. hES cells were treated with a test compound at a single concentration equivalent to the compound's published therapeutic Cmax. […] This was done to ensure that enough cells were present at the time of sample collection to provide a signal for LC-HRMS analysis. For test compound exposure, all compound stock solutions, with the exception of valproic acid, were made with DMSO (Sigma-Aldrich). […] Each 96-well plate included media controls with and without test compound, 0.1% DMSO solvent control cells and cells exposed to a single concentration of eight different test compounds (FIG. 1A). Media controls were included on each plate to assess the impact of test compound on the sample matrix. hES cells were exposed to the test compound for 72 hours, with media and test compound replacement every 24 hours. Cells were monitored throughout the treatment period to ensure that no differentiation was occurring. After 72 hours of treatment, the spent media from the final 24-hour treatment period was collected and added to acetonitrile (Sigma-Aldrich, final acetonitrile concentration 40%), to halt metabolic processes and precipitate proteins from solution. Individual wells from each 96-well plate were collected and analyzed as separate samples. These samples were then stored at −80° C. until prepared for LC-HRMS analysis. Cell viability was assessed using the CellTiter-Fluor Cell Viability Assay as per the manufacturer's instructions (Promega, Madison, Wis.). Quality control parameters were set such that if the coefficient of variation (CV) for the viability relative fluorescent units (RFU) of the 6 cellular samples in a treatment exceeded 10% and no outliers were identified using the Grubb's test (see the worldwide web at graphpad.com/quickcalcs/Grubbs1.cfm), analysis was halted for that compound and the cell culture experiment was repeated. If outliers were present, the outlier sample was removed from analysis. If the CV for the DMSO control cell samples on a plate were outside of the quality control parameters, the entire plate was repeated. hES cell exposure to each of the 23 compounds was replicated a total of nine times.
as §1
Phase 2 Prediction of Developmental Toxicity Potential. […] FIG. 2 illustrates how the assay is applied in this situation. A test compound is considered to be teratogenic at the exposure level where the o/c ratio exceeds the teratogenicity threshold (red box, FIG. 2).

Rodent = details: cited from earlier work; for Rodent in vivo test results: Embryotoxic: embryotoxic effect in the absence of teratogenic effects and maternal toxicity
Rabbit = details: cited from earlier work
[3] = tested on: mouse embryonic stem cell; details: cited from earlier work
rat whole embryo = details: cited from earlier work
[4] = summarized from TERIS and Briggs et al. 2011, cited from earlier work; for Preclinical in vivo developmental effects: application set compounds
hES cells [5] = experiment: devTOX computational model predictions (Version 2.0, Version 2.1) from hES cell metabolomics; format: cell-based, human; details: single dose per treatment (Dose column)
From the text: The selection process weighted the predictive capacity of a feature, overall intensity, and peak shape to identify very well behaved features/metabolites that could be measured by targeted LC-MS or even by other detection systems.
(§2) This simplified model is based on a ratio of the reference treatment (DMSO) normalized values of ADMA and cystine.

hES cells [6] = experiment: ADMA/cystine ratio simplified predictive model in hES cell spent media; format: cell-based, human; details: single dose per treatment; ratios less than 0.9 indicate teratogenicity
From the text: as §2
The X-axis is the reference normalized ratio of ADMA/Cystine. The y-axis is the training set of pharmaceuticals. Grey color with triangle glyphs represents teratogens and black color with circle glyphs represents non-teratogens. Each glyph point represents the media value of an independent experimental block (6 reps per block). The crosshair glyphs mark the sample medians. In FIG. 9, grey vertical line is threshold of teratogenicity, grey horizontal lines are the median absolute deviations, and black vertical line designates 1.0. The arrows at the bottom indicate the values used for differentiation of teratogens and nonteratogens, utilizing a cut off of 0.9 (grey line).

[7] = cited from earlier work
Humans = details: cited from earlier work; for Humans (known human developmental toxicity): training and test set; for Known Effect: validation and test set treatments of Example 2
[8] = application set, made using the therapeutic Cmax when available
[9] = test set, teratogenicity potential scored against therapeutic Cmax
[10] = training set, therapeutic peak plasma in vivo concentration, human
[11] = training and test set, weak/moderate and strong teratogens both labeled teratogen
[12] = application set, peak plasma concentration in humans

## NC(=O)c1ccc(N)nc1 [6-Aminonicotinamide]
WA09 hES cells [1]; application set, interpolated concentration where o/c ratio dose response curve crosses teratogenicity threshold 0.88, 72 hours
  Teratogenicity Potential (μM) O/C Ratio: <0.04 µM
WA09 hES cells [1]; [8]
  Targeted Biomarker Assay prediction: TER
WA09 hES cells [2]; application set, interpolated concentration where cell viability dose response curve crosses teratogenicity threshold 0.88, 72 hours
  Teratogenicity Potential (μM) Cell Viability: 24.5 µM
Rodent; application set
  Rodent prediction: TER
Rodent; application set, structural malformations in the absence of maternal toxicity
  Rodent in vivo test results: Teratogenic: +^d
Rabbit; application set
  Rabbit prediction: TER
[3]; application set
  mEST prediction: TER^c
Rat whole embryo; application set
  WEC prediction: TER^d
[4]
  Preclinical in vivo developmental effects: Craniofacial

## Nc1nc(N)c2nc(CNc3ccc(C(=O)N[C@@H](CCC(=O)O)C(=O)O)cc3)cnc2n1 [Aminopterin]
WA09 hES cells [1]; test set, interpolated concentration where o/c ratio dose response curve crosses teratogenicity threshold 0.88, 72 hours
  Teratogenicity Potential (μM) O/C Ratio: 0.01 µM
WA09 hES cells [1]; [9]
  O/C Ratio Prediction: TER
WA09 hES cells [1]; training and test set, o/c ratio scored against therapeutic Cmax
  Targeted Biomarker Assay prediction: TER
WA09 hES cells [2]; test set, interpolated concentration where cell viability dose response curve crosses teratogenicity threshold 0.88, 72 hours
  Teratogenicity Potential (μM) Cell Viability: 0.01 µM
WA09 hES cells [2]; [9]
  Viability Prediction: TER
hES cells [5]
  Model Predictions Version 2.0: Ter
  Model Predictions Version 2.1: Ter
hES cells [6]
  Model Predictions ADMA/Cystine: Ter
[7]; test set, therapeutic peak plasma in vivo concentration, human
  Cmax: 300 nM
Humans
  Humans (known human developmental toxicity): TER
  Known Effect: Ter
Rodent; training and test set
  Rodent prediction: TER
Rabbit; training and test set
  Rabbit prediction: TER
[4]; test set compounds
  Preclinical in vivo and known human developmental effects: Craniofacial, limb, skeletal,

## CS(=O)(=O)OCCCCOS(C)(=O)=O [Busulfan]
WA09 hES cells [1]
  O/C Ratio Prediction: TER
  Targeted Biomarker Assay prediction: TER
WA09 hES cells [1]; human, 72 h
  Teratogenicity Potential (μM) O/C Ratio: 0.6 µM
WA09 hES cells [2]
  Viability Prediction: TER
WA09 hES cells [2]; human, 72 h
  Cytotoxicity at the Cmax exposure level: greater than 30%
  Teratogenicity Potential (μM) Cell Viability: 3 µM
hES cells [5]
  Model Predictions Version 2.0: Ter
  Model Predictions Version 2.1: Ter
hES cells [6]
  Model Predictions ADMA/Cystine: Ter
[7]; [10]
  Cmax: 49600 nM
Humans
  Humans (known human developmental toxicity): TER
  Known Effect: Ter
Rodent; training and test set
  Rodent prediction: TER
Rabbit; training and test set
  Rabbit prediction: TER
[3]; [11]
  mEST prediction: TER^i
Rat whole embryo; [11]
  WEC prediction: TER^j
[4]; training set compounds
  Preclinical in vivo and known human developmental effects: Craniofacial, limb, embryo

## CNCCC(Oc1ccc(C(F)(F)F)cc1)c1ccccc1 (stereo not shown) [Fluoxetine]
WA09 hES cells [1]
  Targeted Biomarker Assay prediction: NON
WA09 hES cells [1]; human, 72 h
  Teratogenicity Potential (μM) O/C Ratio: 25.1 µM
WA09 hES cells [2]; human, 72 h
  Teratogenicity Potential (μM) Cell Viability: 23 µM
[7]; [12]
  Cmax: 40 nM
Rodent; application set
  Rodent prediction: TER
  Rodent in vivo test results: Embryotoxic: +
Rabbit; application set
  Rabbit prediction: NON
[3]; application set
  mEST prediction: TER^e
Rat whole embryo; application set
  WEC prediction: NON^f,g
[4]
  Preclinical in vivo developmental effects: Embryo toxicity^c

## N[C@@H](Cc1cc(I)c(Oc2cc(I)c(O)c(I)c2)c(I)c1)C(=O)O [Levothyroxine]
WA09 hES cells [1]
  O/C Ratio Prediction: NON
  Targeted Biomarker Assay prediction: NON
WA09 hES cells [1]; human, 72 h
  Teratogenicity Potential (μM) O/C Ratio: 43.5 µM
WA09 hES cells [2]
  Viability Prediction: NON
WA09 hES cells [2]; human, 72 h
  Teratogenicity Potential (μM) Cell Viability: >300 µM
hES cells [5]
  Model Predictions Version 2.0: Ter
  Model Predictions Version 2.1: Non
hES cells [6]
  Model Predictions ADMA/Cystine: Non
[7]; [10]
  Cmax: 140 nM
Humans
  Humans (known human developmental toxicity): NON
  Known Effect: Non
Rodent; training and test set
  Rodent prediction: NON
Rabbit; training and test set
  Rabbit prediction: NON
[4]; training set compounds
  Preclinical in vivo and known human developmental effects: None

## CN(CCOc1ccc(CC2SC(=O)NC2=O)cc1)c1ccccn1 (stereo not shown) [Rosiglitazone]
WA09 hES cells [1]; [8]
  Targeted Biomarker Assay prediction: NON
WA09 hES cells [1]; human, 72 h
  Teratogenicity Potential (μM) O/C Ratio: 18.9 µM
WA09 hES cells [2]; human, 72 h
  Teratogenicity Potential (μM) Cell Viability: 21.8 µM
[7]; [12]
  Cmax: 1700 nM
Rodent; application set
  Rodent prediction: TER
  Rodent in vivo test results: Embryotoxic: +
Rabbit; application set
  Rabbit prediction: TER
Rat whole embryo; application set
  WEC prediction: NON^h
[4]
  Preclinical in vivo developmental effects: Embryo toxicity^c
